Key:
[1] = can degrade under some warehousing conditions; cited from earlier work
[2] = Storage stability of the nicotinamide lipoate crystalline powder, followed by repeated infrared spectrophotometry; type: physicochemical
Description: A small quantity of the powder as a mineral oil mull spread was spread on NaCl polished crystal plates. The plate was placed in a Beckman Infrared Spectrophotometer AccuLab 2 grating machine, linear in wave number.

[3] = reduced form with two -SH groups; cited from earlier work

Compound: O=C(O)CCCC[C@@H]1CCSS1 [R-LA, R-α-lipoic acid]
- Temperature above which unstable [1]: above 40 °C

Compound: NC(=O)c1cccnc1.O=C(O)CCCCC1CCSS1 (stereo not shown) [Example 1]
- Change in crystal form or chemical composition on standing ([2]; ambient conditions (light and temperature) for over a year): essentially no change
- Infrared spectrum on repeat spectrophotometry compared with initial spectrum ([2]; mineral oil mull on NaCl plates, repeated at about 3 and 17 months, ambient conditions (light and temperature)): essentially the same

Compound: O=C(O)CCCC[C@@H](S)CCS (racemic) [DHLA, dihydrolipoate]
- Oxidation potential [3]: −0.29 V

Source: patent US20040044046A1, “Stability of lipoic acid” (priority 2002, published 2004)
